Reference: PubChem BioAssay AID1918952 (Molecular Pharmacology Branch, DTP, NCI, 2023)

Tested on: LG0703-F948-PDC complex spheroid viability
Assay: Anticancer human tumor LG0703-F948-PDC patient-derived lung adenocarcinoma cell line growth inhibition
Details: for IC50: curve of first compound; for viability, T/C: stronger effect = lower value
Outline: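 Drug combinations with the LSD1 inhibitor iadademstat tested on tumor cells co-cultured as spheroids with endothelial cells and mesenchymal stem cells. Concentrations descended in half-log increments from clinical Cmax or 10 microM.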

[1] = second compound 0.1 µM, first compound 0.0316 µM
[2] = second compound 0.1 µM, first compound 0.1 µM
[3] = second compound 0.1 µM, first compound 0.316 µM
[4] = second compound 0.1 µM, first compound 1 µM
[5] = second compound 0.1 µM, first compound 3.16 µM
[6] = second compound 0.1 µM, first compound 10 µM
[7] = second compound 0.316 µM, first compound 0.0316 µM
[8] = second compound 0.316 µM, first compound 0.1 µM
[9] = second compound 0.316 µM, first compound 0.316 µM
[10] = second compound 0.316 µM, first compound 1 µM
[11] = second compound 0.316 µM, first compound 3.16 µM
[12] = second compound 0.316 µM, first compound 10 µM
[13] = second compound 1 µM, first compound 0.0316 µM
[14] = second compound 1 µM, first compound 0.1 µM
[15] = second compound 1 µM, first compound 0.316 µM
[16] = second compound 1 µM, first compound 1 µM
[17] = second compound 1 µM, first compound 3.16 µM
[18] = second compound 1 µM, first compound 10 µM
[19] = second compound 3.16 µM, first compound 0.0316 µM
[20] = second compound 3.16 µM, first compound 0.1 µM
[21] = second compound 3.16 µM, first compound 0.316 µM
[22] = second compound 3.16 µM, first compound 1 µM
[23] = second compound 3.16 µM, first compound 3.16 µM
[24] = second compound 3.16 µM, first compound 10 µM
[25] = second compound 10 µM, first compound 0.0316 µM
[26] = second compound 10 µM, first compound 0.1 µM
[27] = second compound 10 µM, first compound 0.316 µM
[28] = second compound 10 µM, first compound 1 µM
[29] = second compound 10 µM, first compound 3.16 µM
[30] = second compound 10 µM, first compound 10 µM
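Further: spheroids exposed to agents for seven days before readout.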
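Wherever viability, T/C is given: 100% = DMSO vehicle control wells as normalization base.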

Row | Structure (SMILES) | IC50 (second compound 0.1 µM) | IC50 (second compound 0.316 µM) | IC50 (second compound 1 µM) | IC50 (second compound 3.16 µM) | IC50 (second compound 10 µM) | viability, T/C [1] | viability, T/C [2] | viability, T/C [3] | viability, T/C [4] | viability, T/C [7] | viability, T/C [8] | viability, T/C [9] | viability, T/C [10] | viability, T/C [13] | viability, T/C [14] | viability, T/C [15] | viability, T/C [16] | viability, T/C [19] | viability, T/C [20] | viability, T/C [21] | further results
1 | CC(C)c1c(-c2ccccc2)nc2c(C#N)c[nH]n2c1=O + NC1CCC(NC2CC2c2ccccc2)CC1 | > 10000 nM | > 10000 nM | > 10000 nM | > 10000 nM | > 10000 nM | 101% | 95.8% | 85.5% | 90.1% | 98.1% | 104% | 97.4% | 95% | 110% | 102% | 106% | 83% | 106% | 108% | 108% | viability, T/C [5]: 102%; viability, T/C [6]: 78.3%; viability, T/C [11]: 101%; viability, T/C [12]: 85.9%; viability, T/C [17]: 98.4%; viability, T/C [18]: 89.1%; viability, T/C [22]: 105%; viability, T/C [23]: 107%; viability, T/C [24]: 94.1%; viability, T/C [25]: 110%; viability, T/C [26]: 119%; viability, T/C [27]: 113%; viability, T/C [28]: 105%; viability, T/C [29]: 100%; viability, T/C [30]: 85.8%
2 | CC1COCCN1c1cc(-c2ccnn2C)c2ccnc(-c3ccn[nH]3)c2n1 (stereo not given) + NC1CCC(NC2CC2c2ccccc2)CC1 | 43.8 nM | 48.5 nM | 42.6 nM | 71.1 nM | 42.5 nM | 52.8% | 37.5% | 25.5% | 13.5% | 54.6% | 36.2% | 26.2% | 16% | 60.2% | 34.7% | 21.6% | 17.6% | 77% | 38.1% | 24.2% | viability, T/C (second compound 0.1 µM, first compound 0.00316 µM): 76.3%; viability, T/C (second compound 0.1 µM, first compound 0.01 µM): 71.6%; viability, T/C (second compound 0.316 µM, first compound 0.00316 µM): 69.9%; viability, T/C (second compound 0.316 µM, first compound 0.01 µM): 79.5%; viability, T/C (second compound 1 µM, first compound 0.00316 µM): 99.8%; viability, T/C (second compound 1 µM, first compound 0.01 µM): 72.4%; viability, T/C (second compound 3.16 µM, first compound 0.00316 µM): 78.8%; viability, T/C (second compound 3.16 µM, first compound 0.01 µM): 85.8%; viability, T/C [22]: 13.9%; viability, T/C (second compound 10 µM, first compound 0.00316 µM): 82.3%; viability, T/C (second compound 10 µM, first compound 0.01 µM): 78.9%; viability, T/C [25]: 55.6%; viability, T/C [26]: 30.1%; viability, T/C [27]: 21.1%; viability, T/C [28]: 11.5%
3 | COc1ccc([C@@H](O)c2cc(-c3ncnc4cc(N5CCOCC5)ccc34)c(F)cc2Cl)nn1 + NC1CCC(NC2CC2c2ccccc2)CC1 | 1160 nM | 1170 nM | 1230 nM | 1170 nM | 1030 nM | 100% | 97.4% | 88.4% | 54.5% | 92.3% | 110% | 87.3% | 54.8% | 110% | 97.4% | 84% | 61.8% | 112% | 95.3% | 89.6% | viability, T/C [5]: 17.4%; viability, T/C [6]: 3.58%; viability, T/C [11]: 18.7%; viability, T/C [12]: 4.54%; viability, T/C [17]: 16.1%; viability, T/C [18]: 3.83%; viability, T/C [22]: 56.5%; viability, T/C [23]: 16.7%; viability, T/C [24]: 3.27%; viability, T/C [25]: 118%; viability, T/C [26]: 107%; viability, T/C [27]: 92.4%; viability, T/C [28]: 52.2%; viability, T/C [29]: 12.4%; viability, T/C [30]: 3.19%
